According to patent US12036226B2, “Methods of treating subjects having diabetes with chronic kidney disease” (Poxel SA, priority 2018, dated 2024):
Read-outs that look alike come from different tables or passages of the source.

What was measured:
[1] = Daily steady-state exposure (AUC24,ss) in a Phase 2b clinical study; assay type: in vivo; settings: human, plasma, oral, 1500 mg, 1500 mg BID treatment arm
Experimental: In addition, predicted daily steady-state exposures (AUC24,ss) for doses of 500 mg BID, 1500 mg QD, and 1000 mg BID in T2DM subjects with CKD stage 3B or 4 in a Phase 1b study were estimated using parameters from the population PK model; the mean AUC24,ss values and standard deviations are shown in FIG. 10. For reference, the mean AUC24,ss and standard deviation from a Phase 2b clinical study is also included in FIG. 10; the mean AUC24,ss in the 1500 mg BID treatment arm in that study was 36.5 μg·hr/mL (the AUC24,ss range was 10.1 to 169.3 μg·hr/mL). At each of the three dose levels, significant overlap in exposure between T2DM subjects with CKD3B and T2DM subjects with CKD4 was predicted as evidenced by the overlap of standard deviation bars between CKD3B and CKD4 subjects at each dose level.

[2] = tested on: Japanese type 2 diabetic subjects; assay: Phase 2b dose-ranging placebo-controlled 24-week study in Japanese type 2 diabetic subjects; assay type: in vivo, human; settings: for FPG LSM difference vs baseline / FPG LSM difference vs placebo: 24 weeks, FAS; for responder rate (subjects reaching HbA1c≤7%): end of 24-week treatment (placebo 8.2%)
Experimental: A Dose-Ranging, Randomized, Double-Blind, Placebo-Controlled, Parallel-Group, Multi-Center Study of the Efficacy and Safety of 3 Doses of Imeglimin after 24 Weeks of Treatment in Japanese Type 2 Diabetic Subjects
In this study, a total of 299 subjects with T2DM received either imeglimin at one of the 3 doses (500, 1000 and 1500 mg bid) or placebo. The primary objective of this study was to assess the dose-response of imeglimin at 3 doses (500, 1000 and 1500 mg bid) compared to placebo in male and female subjects with T2DM after 24 weeks of treatment, using glycosylated hemoglobin (HbA1c) as the primary endpoint. Inclusion Criteria: subjects have an eGFR of ≥50 mL/min/1.73 m^2 at screening and >=45 at pre randomization visit. A total of 299 subjects were randomized 1:1:1:1 to one of the 4 study arms, with 268 subjects completing the study.
Percentage of responders was defined as the percentage of subjects who reached a value of HbA1c≤7% at the end of the 24-week double-blind treatment period. The analysis was performed using the FAS for subjects with an HbA1c value greater than 7.0% at baseline.
In a post-hoc analysis, efficacy and safety/tolerability profile was investigated in patients depending on their renal function (CKD 1=eGFR≥90 mL/min/1.73 m^2, CKD2=60≤eGFR<90 mL/min/1.73 m^2, CKD3A=45≤eGFR<60 mL/min/1.73 m^2). 299 patients were randomized 74% of the patients had CKD2, 14% had CKD1, and 12% CKD3A, respectively. The primary endpoint was met with a statistically significant dose-dependent placebo subtracted decrease in HbA1c at the 3 doses with the 2 top doses of 1,000 and 1,500 mg bid reaching an HbA1c decrease of −0.94% and −1.00% respectively (Table 5). […] There were no major differences in the incidence of AE, SAE or AE leading to treatment discontinuation.

[3] = CKD Stage 2 (eGFR = 60-90 mL/min/1.73 m^2), 500 mg BID
[4] = CKD Stage 2 (eGFR = 60-90 mL/min/1.73 m^2), 500 mg BID, N 56
[5] = CKD Stage 2 (eGFR = 60-90 mL/min/1.73 m^2), 1000 mg BID
[6] = CKD Stage 2 (eGFR = 60-90 mL/min/1.73 m^2), 1000 mg BID, N 57
[7] = CKD Stage 2 (eGFR = 60-90 mL/min/1.73 m^2), 1500 mg BID
[8] = CKD Stage 2 (eGFR = 60-90 mL/min/1.73 m^2), 1500 mg BID, N 51
[9] = CKD Stage 3a (eGFR < 60 mL/min/1.73 m^2), 500 mg BID
[10] = CKD Stage 3a (eGFR < 60 mL/min/1.73 m^2), 500 mg BID, N 10

## C[C@H]1N=C(N(C)C)N=C(N)N1 [imeglimin, (6R)—N^2, N^2,6-trimethyl-3,6-dihydro-1,3,5-triazine-2,4-diamine]
[1]; read-out: AUC24,ss range
  AUC: 10100 to 169000 ng·h/mL
[1]; read-out: mean AUC24,ss
  AUC: 36500 ng·h/mL
[2]; 500 mg (placebo 13.3%)
  TEAE leading to discontinuation: 2.7%
[2]; 500 mg bid
  FPG LSM difference vs baseline: 8.0 mg/dL
  FPG LSM difference vs placebo: -8.6 mg/dL
[2]; 500 mg bid, baseline HbA1c <8%
  placebo-adjusted change in HbA1c: −0.47%
[2]; 500 mg bid, baseline HbA1c ≥8%
  placebo-adjusted change in HbA1c: −0.58%
[2]; 1000 mg (placebo 13.3%)
  TEAE leading to discontinuation: 6.8%
[2]; 1000 mg bid
  FPG LSM difference vs baseline: -8.0 mg/dL
  FPG LSM difference vs placebo: -24.6 mg/dL
  responder rate (subjects reaching HbA1c≤7%): 33.3%
[2]; 1000 mg bid, baseline HbA1c <8%
  placebo-adjusted change in HbA1c: −0.93%
[2]; 1000 mg bid, baseline HbA1c ≥8%
  placebo-adjusted change in HbA1c: −0.90%
[2]; 1500 mg (placebo 13.3%)
  TEAE leading to discontinuation: 6.7%
[2]; 1500 mg bid (placebo 10.7%)
  subjects requiring a rescue therapy due to poor glycemic control: no subjects requiring rescue therapy
[2]; 1500 mg bid
  FPG LSM difference vs baseline: -8.0 mg/dL
  FPG LSM difference vs placebo: -24.6 mg/dL
  responder rate (subjects reaching HbA1c≤7%): 32.9%
[2]; 1500 mg bid, baseline HbA1c <8%
  placebo-adjusted change in HbA1c: −0.82%
[2]; 1500 mg bid, baseline HbA1c ≥8%
  placebo-adjusted change in HbA1c: −1.2%
[2]; 2 top doses of 1000 and 1500 mg bid
  Decrease in FPG (placebo-adjusted): 1.37 mmol/L
[2]; CKD3a subgroup, post-hoc analysis
  SAE or AE leading to discontinuation: No SAE or AE leading to discontinuation were observed
[2]; [3]
  FPG LSM Difference vs. Placebo, Week 24: -14.2 mg/dL
  HbA1c LSM Difference vs. Placebo (SEM), Week 24: −0.60%
[2]; [4]
  Change in FPG from baseline, Week 24 LS Mean: 5.8 mg/dL
  Change in HbA1c from baseline, Week 24 LS Mean (SEM): −0.08 (0.109) %
[2]; CKD Stage 2 (eGFR = 60-90 mL/min/1.73 m^2), 500 mg BID, listed as Imeglimin
  HbA1c LSM Difference vs. Placebo (SEM), Week 24: −0.60 (0.154) %
[2]; [5]
  FPG LSM Difference vs. Placebo, Week 24: -26.5 mg/dL
  HbA1c LSM Difference vs. Placebo (SEM), Week 24: −1.03%
[2]; [6]
  Change in FPG from baseline, Week 24 LS Mean: -6.5 mg/dL
  Change in HbA1c from baseline, Week 24 LS Mean (SEM): −0.51 (0.110) %
[2]; CKD Stage 2 (eGFR = 60-90 mL/min/1.73 m^2), 1000 mg BID, listed as Imeglimin
  HbA1c LSM Difference vs. Placebo (SEM), Week 24: −1.03 (0.155) %
[2]; [7]
  FPG LSM Difference vs. Placebo, Week 24: -33.0 mg/dL
  HbA1c LSM Difference vs. Placebo (SEM), Week 24: −1.11%
[2]; [8]
  Change in FPG from baseline, Week 24 LS Mean: -12.9 mg/dL
  Change in HbA1c from baseline, Week 24 LS Mean (SEM): −0.58 (0.117) %
[2]; CKD Stage 2 (eGFR = 60-90 mL/min/1.73 m^2), 1500 mg BID, listed as Imeglimin
  HbA1c LSM Difference vs. Placebo (SEM), Week 24: −1.11 (0.160) %
[2]; [9]
  FPG LSM Difference vs. Placebo, Week 24: -6.7 mg/dL
  HbA1c LSM Difference vs. Placebo (SEM), Week 24: −0.54%
[2]; [10]
  Change in FPG from baseline, Week 24 LS Mean: 1.7 mg/dL
  Change in HbA1c from baseline, Week 24 LS Mean (SEM): −0.32 (0.240) %
